Laboratory results from paper PMC11841054 (Journal of Bacteriology, 2025).

Legend:
[1] = target: T1, GlnA3Sc (Streptomyces coelicolor, UniProt Q9KZC7); assay: GS activity assay, phosphate release; type: biochemical; conditions: 50 mM substrate; glutamate and ATP co-substrates
T1 construct: gene glnA3; His-tagged (pYT/his-glnA3, pYT9 derivative) from E. coli BL21

[2] = target: T2, GlnA3Mt (Mycobacterium tuberculosis, UniProt O07752)
T2 construct: gene glnA3
T2 sequence (O07752 1-450): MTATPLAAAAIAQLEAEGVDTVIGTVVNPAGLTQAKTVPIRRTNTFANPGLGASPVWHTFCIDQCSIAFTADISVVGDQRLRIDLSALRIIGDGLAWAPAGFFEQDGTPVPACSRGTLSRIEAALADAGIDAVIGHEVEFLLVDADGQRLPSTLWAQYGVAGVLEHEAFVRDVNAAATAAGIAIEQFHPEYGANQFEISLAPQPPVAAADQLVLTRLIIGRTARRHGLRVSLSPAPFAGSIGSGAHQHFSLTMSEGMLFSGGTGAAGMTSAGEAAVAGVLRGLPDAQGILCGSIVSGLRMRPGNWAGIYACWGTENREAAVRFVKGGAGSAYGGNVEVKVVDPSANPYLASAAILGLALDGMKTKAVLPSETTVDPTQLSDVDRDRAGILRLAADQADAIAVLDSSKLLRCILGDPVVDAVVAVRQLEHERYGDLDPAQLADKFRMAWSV

T1 sequence (Q9KZC7 whole entry): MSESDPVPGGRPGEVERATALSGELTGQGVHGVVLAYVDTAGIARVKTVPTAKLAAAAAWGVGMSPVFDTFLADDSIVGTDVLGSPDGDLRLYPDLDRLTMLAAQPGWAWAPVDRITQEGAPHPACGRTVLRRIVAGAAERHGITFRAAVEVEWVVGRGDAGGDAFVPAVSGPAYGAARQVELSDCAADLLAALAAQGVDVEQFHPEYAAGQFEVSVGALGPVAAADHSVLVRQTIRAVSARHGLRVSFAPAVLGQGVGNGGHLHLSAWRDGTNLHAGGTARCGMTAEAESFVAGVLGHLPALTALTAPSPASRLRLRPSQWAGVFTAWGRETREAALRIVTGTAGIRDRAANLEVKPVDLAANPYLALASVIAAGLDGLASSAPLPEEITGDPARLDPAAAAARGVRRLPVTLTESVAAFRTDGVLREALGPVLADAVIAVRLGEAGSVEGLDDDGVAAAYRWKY

Compound | GS activity assay, phosphate release [1] | GS activity assay, phosphate release; HPLC/ESI-MS of gamma-glutamylspermidine [2]
NCCCNCCCCNCCCN [spermine] | possesses the highest turnover rate when using spermine or spermidine as substrates | 
NCCCCNCCCN [spermidine] | possesses the highest turnover rate when using spermine or spermidine as substrates | the highest activity was observed with spermine and spermidine
